Laboratory results published in US20090104235A1, “Method for Producing of a Preparation of a Solid Dmso-Containing Silicone Oil Emulsion for the Binding of Reactive Oxygen Compounds in Human and Animal Bodies” (priority 2005, published 2009).

Tests used:
[1] = Case report: morbus Bechterev patient with chronic pain, daily suppository application; format: in vivo, human
Description: […]: morbus Bechterev for over 10 years. Treatment of chronic pain with Celebrex.

[2] = DMSO application quantity needed for the same effect; comparison with pure DMSO; format: in vivo, human; conditions: dose of pure DMSO, without silicone emulsion
Experimental: With standard preparations for the treatment of chronic diseases among humans, DMSO can be prescribed in a dose of up to 1 g/kg of body weight. A toxic effect only occurs among humans when over 1 g/kg DMSO is supplied (N. M. Luerry et al. Drug. Intell. Clin. Pharm. 18, 591 [1984]). Due to the silicone emulsion according to the invention, the same effect is achieved among humans with an application quantity of DMSO of 1 mg/kg of body weight. With the silicone emulsion according to the invention, the quantity of DMSO to be applied is therefore reduced to 1/1000th of the application quantity used to date.

[3] = among humans; N. M. Luerry et al. 1984; cited from earlier work

| Structure (SMILES) | side effects ([1]; morbus Bechterev patient) | influence on disease progression ([1]; treatment of chronic pain, morbus Bechterev for over 10 years) | pain-relieving and inflammation-restricting effect [2] | dose at which a toxic effect occurs [3] |
| --- | --- | --- | --- | --- |
| Cc1ccc(-c2cc(C(F)(F)F)nn2-c2ccc(S(N)(=O)=O)cc2)cc1 [Celebrex] | clearly cause difficulty to the patient | can also not be significantly influenced | – | – |
| C[S+](C)[O-] [DMSO, dimethylsulphoxide] | – | – | does not lead to the high pain-relieving and inflammation-restricting effect | over 1 g/kg |
